# pIC50: −log10 of the molar value.
# Assays:
# [1] = molecular target: T1, cloned human 5-HT2C receptor (Homo sapiens, UniProt P28335); test: Human 5-HT2C receptor binding assay ([3H]mesulergine, CHO-K1 membranes); settings: displacement of [3H]mesulergine (1 nM), read-out: 5-HT2C pKi (converted)
# T1 construct: purchased Euroscreen; host or cells: CHO-K1 cells
# T1 sequence (P28335 33-458): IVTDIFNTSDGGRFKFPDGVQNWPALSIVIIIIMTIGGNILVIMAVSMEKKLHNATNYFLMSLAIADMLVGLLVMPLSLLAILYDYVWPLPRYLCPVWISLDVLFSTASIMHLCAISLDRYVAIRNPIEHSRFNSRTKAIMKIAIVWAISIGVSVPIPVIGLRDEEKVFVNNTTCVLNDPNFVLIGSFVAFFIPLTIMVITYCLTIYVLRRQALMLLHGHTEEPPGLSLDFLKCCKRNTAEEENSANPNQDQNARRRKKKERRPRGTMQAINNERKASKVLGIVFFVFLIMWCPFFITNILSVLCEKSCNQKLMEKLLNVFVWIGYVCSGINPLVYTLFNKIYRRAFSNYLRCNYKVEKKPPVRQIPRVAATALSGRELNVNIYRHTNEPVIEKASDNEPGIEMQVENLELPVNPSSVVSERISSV
# Protocol: (§1) The binding affinity of ligands for human 5-HT2A and 5-HT2C receptors was determined using the following assay.
# Membrane preparations from CHO-K1 cells expressing the cloned human 5-HT2C receptor were obtained (Euroscreen). The membranes were thawed rapidly and diluted in assay buffer containing Tris-HCl (50 mM, pH 7.7), ascorbic acid (0.1%) and pargyline (10 μM). The membranes were resuspended by homogenisation, prior to adding 6 μg of membranes to assay wells containing [^3H] mesulergine (1 nM), assay buffer (50 mM Tris at pH 7.7 and 0.1% ascorbic acid) containing pargyline (10 μM), and test compounds (1×10^−10 to 1×10^−4M). Non specific binding was determined in the presence of 100 μM mianserin. After 30 minutes incubation at 37° C., the assay mixture was filtered through a combination of GF-C and GF-B filters, pre-soaked in 1% bovine serum albumin, using a Brandel cell harvester, and were washed three times using ice cold Tris-HCl buffer (50 mM). Radioactivity retained on the filters was determined by liquid scintillation counting. For each test compound, the concentration that inhibited binding of [3H]mesulergine by 50% was determined using curve fitting software (Prism). Kd values (concentration of mesulergine required to occupy 50% of the receptor binding sites at equlibrium) determined from saturation binding studies were then used to calculate inhibition dissociation constants (Ki) using the following equation: […]
# [2] = molecular target: T2, human cloned 5-HT2B receptors (Homo sapiens, UniProt P41595); test: Human cloned 5-HT2B receptor binding assay ([3H]LSD, CHO-K1 membranes); settings: displacement of [3H]LSD (1 nM), read-out: 5-HT2B pKi (converted)
# T2 construct: expressed in transfected cells; host or cells: CHO-K1 cells
# T2 sequence (P41595 whole entry): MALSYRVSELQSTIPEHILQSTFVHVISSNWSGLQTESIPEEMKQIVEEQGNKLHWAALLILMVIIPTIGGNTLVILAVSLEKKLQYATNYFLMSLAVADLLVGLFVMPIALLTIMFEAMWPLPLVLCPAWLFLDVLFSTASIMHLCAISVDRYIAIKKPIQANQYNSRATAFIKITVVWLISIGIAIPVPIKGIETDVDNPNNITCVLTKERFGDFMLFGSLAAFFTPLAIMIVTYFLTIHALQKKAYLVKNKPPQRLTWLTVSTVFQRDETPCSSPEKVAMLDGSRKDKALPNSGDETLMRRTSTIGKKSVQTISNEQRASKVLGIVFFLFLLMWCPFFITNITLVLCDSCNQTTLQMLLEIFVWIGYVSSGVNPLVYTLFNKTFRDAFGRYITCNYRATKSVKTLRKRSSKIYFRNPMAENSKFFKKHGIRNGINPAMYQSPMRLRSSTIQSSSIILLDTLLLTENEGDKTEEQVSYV
# Protocol: The binding affinity of the compounds for human cloned 5-HT2B receptors was determined using the following assay.
# CHO-K1 cells expressing cloned 5-HT2B receptor were maintained in Ultra-CHO medium containing 400 μg/ml of G418, 100 U/ml penicillin, 100 μg/ml streptomycin, 2.5 μg/ml fungizone and 1% foetal bovine serum, in 95/5% O2/CO2 at 37° C. The cells were harvested using 0.25% trypsin and were centrifuged at 800 rpm for 8 minutes. The cells were homogenised in 50 mM HEPES buffer containing 1 mM disodium EDTA and 1 mM PMSF at pH 7.4, using a Dounce homogeniser (20 strokes). The homogenate was centrifuged at 2280 rpm (1000 g) and 4° C. for 10 minutes, after which the supernatant was removed by decanting. The pellet was re-homogenised as above, and the resulting supernatant removed and combined with that already obtained. The supernatant solution was then centrifuged at 18300 rpm (40000 g) for 10 minutes at 4° C. using a Sorvall centrifuge. The supernatant was removed, and the pellet was re-suspended in 50 mM buffer at pH 7.4 using a Ultra-turrax T25 Polytron, before centrifugation again at 40000 g as above. This wash procedure was repeated, after which the membrane preparation was stored at a concentration of 1 mg/ml at −80° C. until use.
# The membranes were thawed rapidly and diluted in assay buffer containing Tris-HCl (50 mM, pH 7.4), ascorbic acid (0.1%) and calcium chloride (4 mM). The membranes were homogenised to resuspend them, prior to adding 10 or 15 μg of membranes to assay wells containing [^3H]LSD (1 nM), assay buffer (50 mM Tris, 4 mM calcium chloride and 0.1% ascorbic acid) containing pargyline (10 μM), and the test compounds (1×10^−10 to 1×10^−4M). Non specific binding was determined in the presence of 100 μM 5-HT. After 30 minutes incubation at 37° C., the assay mixture was filtered through a combination of GF-C and GF-B filters, pre-soaked in 1% polyethyleneimine, using a Brandel cell harvester, and were washed three times using 50 mM Tris-HCl. Radioactivity retained on the filters was determined by liquid scintillation counting. For each test compound, the concentration that inhibited binding of [3H]LSD by 50% was determined using curve fitting software (Prism). Kd values (concentration of LSD required to occupy 50% of the receptor binding sites at equilibrium) determined from saturation binding studies were then used to calculate inhibition dissociation constants (Ki) using the following equation: […]
# This approach follows that set out in Kenakin, T.P. Pharmacologic analysis of drug-receptor interaction. Raven Press, New York, 2nd Edition.
# [3] = molecular target: T2, human cloned 5-HT2B receptors; test: Human cloned 5-HT2B cell-based functional assay (Fluo-4, CHO.K1 cells); settings: inhibition of 5-HT response, CHO.K1 cells expressing cloned 5-HT2B, Fluo-4 AM
# Protocol: The following describes an in vitro functional assay using human cloned 5-HT2B receptors to determine the ability of compounds to block the receptor. CHO.K1 cells expressing cloned 5-HT2B receptor were maintained In Ultra-CHO medium containing 400 μg/ml of G418, 100 U/ml penicillin, 100 μg/ml streptomycin, 2.5 μg/ml fungizone, in 95/5% O2/CO2 at 37° C. Ultra-CHO medium additionally supplemented with 1% foetal bovine serum was used when seeding the cells and removed after 5 hours. Cells were plated in Costar 96 well white, clear-bottomed plate at a density of 50,000 cells per well and incubated for at least 24 hours in 95/5% O2/CO2 at 37° C. before running the assay. Media was removed from the wells and 200 μl of 4 μM Fluo-4 AM added, this was incubated in a Wallace Victor 2V workstation at 37° C. for 30 minutes. The Fluo-4 AM was then removed from the wells, which were then washed twice with 200 μl of buffer (HBSS without calcium/magnesium/phenol red, 20 mM HEPES, 1 mM Ca^2+, 1 mM Mg^2+, 2.5 mM probenecid, pH to 7.4), 180 μl of buffer or test compound was added to the well and incubated for 30 minutes. The Victor 2V injectors were used to inject 20 μl of 5-HT after obtaining 10 0.1-second baseline readings at 535 nm, followed by 150 readings. All test compounds were aliquoted in 100% DMSO at 10 mM and diluted to 1 mM in 50% DMSO, subsequent dilutions were made using buffer. Buffer was also used to dilute the 5-HT. Data were analysed using Microsoft Excel and GraphPad Prism, with the latter used to produce sigmoidal dose-response curves for each compound. The compound concentration that inhibited the 5-HT response by 50% was taken (IC50-M), and the results are shown in Table 3, as pIC50, being the negative log (to the base 10) of the measured IC50 values.
# [4] = molecular target: T3, cloned human 5-HT2A receptor (Homo sapiens, UniProt P28223); test: Human 5-HT2A receptor binding assay ([3H]ketanserin, CHO-K1 membranes); settings: displacement of [3H]ketanserin (1 nM), read-out: 5-HT2A pKi (converted)
# T3 construct: purchased Euroscreen; host or cells: CHO-K1 cells
# T3 sequence (P28223 whole entry): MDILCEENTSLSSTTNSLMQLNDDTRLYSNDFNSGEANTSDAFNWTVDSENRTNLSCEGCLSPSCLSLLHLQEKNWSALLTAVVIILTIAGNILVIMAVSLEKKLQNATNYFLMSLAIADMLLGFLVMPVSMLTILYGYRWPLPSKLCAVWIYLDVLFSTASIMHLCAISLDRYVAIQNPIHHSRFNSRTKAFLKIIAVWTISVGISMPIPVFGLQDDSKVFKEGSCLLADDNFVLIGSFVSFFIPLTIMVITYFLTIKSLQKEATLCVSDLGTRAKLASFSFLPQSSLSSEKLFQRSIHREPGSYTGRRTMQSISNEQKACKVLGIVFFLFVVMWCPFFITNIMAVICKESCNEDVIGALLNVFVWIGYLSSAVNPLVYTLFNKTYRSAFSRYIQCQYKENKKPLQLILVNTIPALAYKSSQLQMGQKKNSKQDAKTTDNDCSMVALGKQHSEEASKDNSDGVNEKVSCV
# Protocol: as §1
# Membrane preparations from CHO-K1 cells expressing the cloned human 5-HT2A receptor were obtained (Euroscreen). The membranes were thawed rapidly and diluted in assay buffer containing Tris-HCl (50 mM, pH 7.7). The membranes were resuspended by homogenisation, prior to adding 15 μg of membranes to assay wells containing [3H] ketanserin (1 nM), assay buffer (50 mM Tris at pH 7.4) containing pargyline (10 μM), and test compounds (1×10^−10 to 1×10^−4M). Non specific binding was determined in the presence of 100 μM mianserin. After 15 minutes incubation at 37° C., the assay mixture was filtered through a combination of GF-C and GF-B filters, pre-soaked in 0.05% Brij, using a Brandel cell harvester, and were washed three times using ice cold Tris-HCl buffer (50 mM). Radioactivity retained on the filters was determined by liquid scintillation counting. For each test compound, the concentration that inhibited binding of [^3H]ketanserin by 50% was determined using curve fitting software (Prism). Kd values (concentration of ketanserin required to occupy 50% of the receptor binding sites at equlibrium) determined from saturation binding studies were then used to calculate inhibition dissociation constants (Ki) using the following equation: […]
Compound,Ki [1] [nM],Ki [2] [nM],pIC50 [3],Ki [4] [nM],melting point [°C]
"COc1ccc2ccccc2c1-c1coc(NC(C)=O)n1 [Compound 25, N-[4-(2-methoxy-naphthalen-1-yl)-oxazol-2-yl]-acetamide]",> 1000,< 100,> 6.00,> 1000,
"Nc1nc(-c2ccc3ccccc3c2)co1 [Compound 16, 4-naphthalen-2-yl-oxazol-2-ylamine]",> 10000,< 1000,> 5.00,> 10000,
"Cc1nc(N)oc1-c1cccc2ccccc12 [Compound 3, 2-amino-4-methyl-5-(naphth-1-yl)oxazole]",> 10000,< 10,> 7.00,> 10000,187 to 189
"CNc1nc(-c2cccc3ccccc23)co1 [Compound 2, 2-methylamino-4-(naphth-1-yl)oxazole]",> 1000,< 1000,> 5.00,> 10000,164 to 166

# — patent publication US7429607B2, “5-HT2B receptor antagonists” (Asterand UK Limited, priority 2002, dated 2008)
